Laboratory results: patent US10968210B2, “Diamino-alkylamino-linked arylsulfonamide compounds with selective activity in voltage-gated sodium channels” (Merck Sharp & Dohme Corp., priority 2016, dated 2021)

What was measured:
[1] = molecular target: T1, human Nav 1.7 channels stably expressed in HEK 293 cells (Homo sapiens, UniProt Q15858); test: IonWorks Quattro automated patch-clamp, inactivated state block of Nav 1.7; format: cell-based; settings: double-pulse protocol, HEK 293 cells held at -100 mV, read-out: potency for the Nav 1.7 sodium ion channel (IC50, IonWorks)
T1 construct: expressed in transfected cells; host or cells: HEK 293
T1 sequence (Q15858 whole entry): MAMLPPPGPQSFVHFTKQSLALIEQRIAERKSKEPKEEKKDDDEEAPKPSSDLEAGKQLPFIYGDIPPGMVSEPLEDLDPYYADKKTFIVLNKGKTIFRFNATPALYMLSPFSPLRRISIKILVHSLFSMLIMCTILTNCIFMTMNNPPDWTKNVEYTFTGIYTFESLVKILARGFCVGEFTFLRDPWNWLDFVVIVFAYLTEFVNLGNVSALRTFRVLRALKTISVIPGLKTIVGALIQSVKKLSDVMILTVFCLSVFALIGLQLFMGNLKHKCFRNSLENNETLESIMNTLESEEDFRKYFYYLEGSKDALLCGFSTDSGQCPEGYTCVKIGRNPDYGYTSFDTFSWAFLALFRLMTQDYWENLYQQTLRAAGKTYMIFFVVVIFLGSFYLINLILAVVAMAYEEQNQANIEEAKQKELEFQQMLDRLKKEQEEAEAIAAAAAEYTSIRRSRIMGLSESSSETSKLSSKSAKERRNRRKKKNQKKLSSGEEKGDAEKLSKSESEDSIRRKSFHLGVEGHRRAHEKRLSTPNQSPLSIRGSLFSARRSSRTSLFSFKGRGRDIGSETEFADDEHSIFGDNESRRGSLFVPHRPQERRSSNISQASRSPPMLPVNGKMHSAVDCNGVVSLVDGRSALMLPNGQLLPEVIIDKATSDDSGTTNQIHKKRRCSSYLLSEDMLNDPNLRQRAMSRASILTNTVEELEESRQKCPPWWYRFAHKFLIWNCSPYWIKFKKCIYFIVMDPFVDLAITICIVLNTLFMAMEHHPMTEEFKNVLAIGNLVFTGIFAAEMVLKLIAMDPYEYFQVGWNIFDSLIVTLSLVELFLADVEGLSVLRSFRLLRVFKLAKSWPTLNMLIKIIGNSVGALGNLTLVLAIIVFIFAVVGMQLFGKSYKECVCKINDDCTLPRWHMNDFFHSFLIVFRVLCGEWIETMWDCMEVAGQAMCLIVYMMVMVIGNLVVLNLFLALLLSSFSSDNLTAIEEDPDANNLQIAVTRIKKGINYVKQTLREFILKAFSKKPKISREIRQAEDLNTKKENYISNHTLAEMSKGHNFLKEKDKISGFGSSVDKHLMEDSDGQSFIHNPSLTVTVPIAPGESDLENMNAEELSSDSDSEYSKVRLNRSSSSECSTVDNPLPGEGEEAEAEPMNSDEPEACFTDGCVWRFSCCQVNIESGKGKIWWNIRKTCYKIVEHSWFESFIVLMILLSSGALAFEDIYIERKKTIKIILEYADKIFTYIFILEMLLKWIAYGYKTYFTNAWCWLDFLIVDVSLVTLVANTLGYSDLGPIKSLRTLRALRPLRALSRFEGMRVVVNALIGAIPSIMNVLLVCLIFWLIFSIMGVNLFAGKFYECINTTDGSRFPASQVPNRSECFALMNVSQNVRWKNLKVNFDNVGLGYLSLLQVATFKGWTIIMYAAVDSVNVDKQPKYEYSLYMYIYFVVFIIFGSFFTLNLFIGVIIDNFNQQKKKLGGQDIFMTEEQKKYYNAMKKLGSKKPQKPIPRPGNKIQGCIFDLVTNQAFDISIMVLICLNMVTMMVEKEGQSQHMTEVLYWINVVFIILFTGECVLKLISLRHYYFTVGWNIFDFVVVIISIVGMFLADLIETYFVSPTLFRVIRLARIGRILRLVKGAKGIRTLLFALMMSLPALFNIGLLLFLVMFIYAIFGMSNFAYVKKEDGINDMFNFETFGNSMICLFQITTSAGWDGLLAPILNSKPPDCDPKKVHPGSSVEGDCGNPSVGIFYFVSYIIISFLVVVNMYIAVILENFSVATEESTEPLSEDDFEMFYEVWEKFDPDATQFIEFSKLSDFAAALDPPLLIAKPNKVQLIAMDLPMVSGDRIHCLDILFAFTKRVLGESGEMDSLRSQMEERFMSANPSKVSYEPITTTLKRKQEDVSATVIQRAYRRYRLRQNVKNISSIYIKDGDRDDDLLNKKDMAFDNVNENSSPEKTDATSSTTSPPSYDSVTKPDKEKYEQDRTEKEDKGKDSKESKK
Outline: (§1)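 Inactivated-state block was recorded by automated perforated patch (nystatin plus amphotericin) using a double-pulse protocol. Holding was −100 mV (Nav1.7) or −110 mV (Nav1.5), with a 1000 ms prepulse to −10/−30 mV giving ~50% inactivation, then a 10 ms test pulse. IC50s came from Hill fits of peak current inhibition.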

[2] = molecular target: T2, human Nav 1.5 channels stably expressed in HEK 293 cells (Homo sapiens, UniProt Q14524); test: IonWorks Quattro automated patch-clamp, inactivated state block of Nav 1.5 (reported as ratio to Nav 1.7 potency); format: cell-based; settings: selectivity for Nav 1.7 over Nav 1.5, both by IonWorks
T2 construct: expressed in transfected cells; host or cells: HEK 293
T2 sequence (Q14524 whole entry): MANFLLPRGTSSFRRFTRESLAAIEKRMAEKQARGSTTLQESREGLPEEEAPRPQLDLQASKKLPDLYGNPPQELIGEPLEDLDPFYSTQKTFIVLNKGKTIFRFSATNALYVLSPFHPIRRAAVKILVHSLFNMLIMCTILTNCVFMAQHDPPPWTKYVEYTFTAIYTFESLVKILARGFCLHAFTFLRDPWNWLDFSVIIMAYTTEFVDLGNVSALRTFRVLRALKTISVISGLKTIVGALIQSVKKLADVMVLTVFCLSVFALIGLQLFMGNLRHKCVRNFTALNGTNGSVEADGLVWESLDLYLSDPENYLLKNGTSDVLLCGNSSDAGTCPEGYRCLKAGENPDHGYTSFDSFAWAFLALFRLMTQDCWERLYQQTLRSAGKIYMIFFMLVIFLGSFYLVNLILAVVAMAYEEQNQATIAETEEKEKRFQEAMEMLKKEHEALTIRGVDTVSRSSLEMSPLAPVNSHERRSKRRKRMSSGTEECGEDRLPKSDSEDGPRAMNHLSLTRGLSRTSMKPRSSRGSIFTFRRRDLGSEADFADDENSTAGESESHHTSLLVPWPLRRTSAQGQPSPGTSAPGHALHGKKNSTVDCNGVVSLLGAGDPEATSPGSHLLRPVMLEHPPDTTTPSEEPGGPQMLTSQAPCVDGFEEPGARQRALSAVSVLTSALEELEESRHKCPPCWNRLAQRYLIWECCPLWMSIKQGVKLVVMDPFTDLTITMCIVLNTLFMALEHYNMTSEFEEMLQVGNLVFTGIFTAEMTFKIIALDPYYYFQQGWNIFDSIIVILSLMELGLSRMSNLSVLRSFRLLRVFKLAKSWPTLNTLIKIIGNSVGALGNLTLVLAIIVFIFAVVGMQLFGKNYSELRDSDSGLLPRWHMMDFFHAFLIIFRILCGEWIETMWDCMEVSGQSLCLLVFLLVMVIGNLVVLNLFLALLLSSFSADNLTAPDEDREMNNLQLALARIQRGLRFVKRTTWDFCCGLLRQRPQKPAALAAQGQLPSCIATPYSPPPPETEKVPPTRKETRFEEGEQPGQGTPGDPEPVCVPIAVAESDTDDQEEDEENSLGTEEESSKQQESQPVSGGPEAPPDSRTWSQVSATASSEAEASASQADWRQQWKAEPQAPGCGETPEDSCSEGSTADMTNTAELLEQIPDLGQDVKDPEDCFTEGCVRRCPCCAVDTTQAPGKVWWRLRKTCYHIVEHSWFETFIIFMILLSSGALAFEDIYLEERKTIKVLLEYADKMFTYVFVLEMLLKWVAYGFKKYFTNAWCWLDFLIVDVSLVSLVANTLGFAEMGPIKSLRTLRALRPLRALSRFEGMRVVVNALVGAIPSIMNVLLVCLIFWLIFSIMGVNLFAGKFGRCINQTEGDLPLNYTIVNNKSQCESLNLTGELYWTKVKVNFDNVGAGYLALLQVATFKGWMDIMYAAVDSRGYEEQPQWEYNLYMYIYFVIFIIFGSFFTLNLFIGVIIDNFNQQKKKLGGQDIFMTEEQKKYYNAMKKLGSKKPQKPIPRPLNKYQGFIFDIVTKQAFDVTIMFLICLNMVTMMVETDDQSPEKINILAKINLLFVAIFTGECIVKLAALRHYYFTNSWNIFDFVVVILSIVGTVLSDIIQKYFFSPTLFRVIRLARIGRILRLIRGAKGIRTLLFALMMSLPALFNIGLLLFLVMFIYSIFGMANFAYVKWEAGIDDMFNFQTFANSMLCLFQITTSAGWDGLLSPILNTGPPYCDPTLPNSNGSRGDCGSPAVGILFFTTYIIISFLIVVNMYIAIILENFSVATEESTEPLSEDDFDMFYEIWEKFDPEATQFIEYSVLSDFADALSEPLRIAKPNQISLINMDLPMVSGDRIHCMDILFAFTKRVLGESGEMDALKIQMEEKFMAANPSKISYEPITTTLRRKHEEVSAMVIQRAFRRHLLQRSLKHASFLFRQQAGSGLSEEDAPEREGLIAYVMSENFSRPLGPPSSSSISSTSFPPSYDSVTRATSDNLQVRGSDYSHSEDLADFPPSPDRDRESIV
Outline: as §1

| IC50 [1] [nM] | SMILES | ratio of Nav 1.7 : Nav 1.5 potency (IonWorks) [2] |
| --- | --- | --- |
| 190 | N[C@@H]1CCCN(CCCCNc2cc(F)c(S(=O)(=O)Nc3nccs3)cc2Cl)C1 [Ex 1-35, 4-({4-[(3R)-3-aminopiperidin-1-yl]butyl}amino)-5-chloro-2-fluoro-N-1,3-thiazol-2-ylbenzenesulfonamide] | > 170 |
| 39 | O=S(=O)(Nc1nccs1)c1cc(Cl)c(NC[C@H]2C[C@@H]3CN(C[C@@H]4CCCN4)C[C@@H]3C2)cc1F [Ex 6-8, 5-chloro-2-fluoro-4-[({(3aR,5R,6aS)-2-[(2S)-pyrrolidin-2-ylmethyl]octahydrocyclopenta[c]pyrrol-5-yl}methyl)amino]-N-1,3-thiazol-2-ylbenzenesulfonamide] | > 850 |
